The values that follow come from US20250122160A1, “PROTEIN TYROSINE PHOSPHATASE INHIBITORS AND METHODS OF USE THEREOF” (Calico Life Sciences LLC, priority 0001, published 2025).

Broadly, the IC50 is the concentration that inhibits the measured activity by half.

Assay [1] addresses T1, His tagged PTPN2 (TC45) protein (Homo sapiens, UniProt P17706).
T1 construct: made in house
T1 sequence (P17706 with tags, fused parts or gaps isoform P17706-2): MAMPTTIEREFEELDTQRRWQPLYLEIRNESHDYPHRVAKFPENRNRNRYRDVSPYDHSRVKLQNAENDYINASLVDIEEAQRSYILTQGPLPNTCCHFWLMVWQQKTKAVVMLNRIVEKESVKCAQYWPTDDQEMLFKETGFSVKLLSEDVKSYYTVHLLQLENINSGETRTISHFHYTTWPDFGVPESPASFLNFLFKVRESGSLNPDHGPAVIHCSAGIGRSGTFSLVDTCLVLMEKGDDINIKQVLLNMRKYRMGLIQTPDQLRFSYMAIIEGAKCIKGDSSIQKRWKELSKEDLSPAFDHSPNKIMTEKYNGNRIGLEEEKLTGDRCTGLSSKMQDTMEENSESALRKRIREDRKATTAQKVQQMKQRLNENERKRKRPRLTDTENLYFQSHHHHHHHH
The experiment in a line: Mobility shift assay (MSA) to determine potency of PTPN2 inhibitors. Type of assay: biochemical. The settings on record: 0.5 nM enzyme, 2 μM substrate. The procedure, abridged:
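His-tagged human PTPN2 (TC45), 0.5 nM, preincubated 10 min at room temperature with compound (12-point, 1:3 dilutions) in HEPES pH 7.5 buffer with EGTA, EDTA, Tween 20 and DTT. Then 2 μM OG488-labelled phospho-insulin-receptor peptide was added for 10 min and quenched. % conversion was read by mobility shift, and IC50 came from % inhibition.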

Assay [2] deals with T2, His tagged full-length PTPN1 protein (Homo sapiens, UniProt P18031).
T2 construct: made in house
T2 sequence (P18031 with tags, fused parts or gaps): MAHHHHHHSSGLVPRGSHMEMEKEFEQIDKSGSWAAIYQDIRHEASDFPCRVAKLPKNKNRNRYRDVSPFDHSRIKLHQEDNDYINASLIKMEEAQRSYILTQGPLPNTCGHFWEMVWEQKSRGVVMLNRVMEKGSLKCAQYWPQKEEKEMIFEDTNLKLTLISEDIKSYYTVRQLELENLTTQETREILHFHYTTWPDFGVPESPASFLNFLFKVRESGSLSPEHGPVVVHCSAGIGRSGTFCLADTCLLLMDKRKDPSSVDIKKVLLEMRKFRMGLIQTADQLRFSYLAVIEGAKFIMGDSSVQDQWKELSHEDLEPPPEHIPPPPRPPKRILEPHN
Kind of assay: Mobility shift assay (MSA) to determine potency of PTPN1 inhibitors. The conditions noted are these: 0.5 nM enzyme, 2 μM substrate. Type of assay: biochemical. An outline of the steps:
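His-tagged full-length human PTPN1 (0.5 nM) preincubated with compound 10 min at room temperature in pH 7.5 HEPES buffer with EGTA, EDTA, Tween 20 and DTT. Dephosphorylation of 2 μM fluorescent phospho-insulin-receptor peptide over 10 min measured by mobility shift. IC50 from % inhibition across a 12-point, 1:3 dilution series.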

For the compound `O=C1CN(c2c(O)cc3c(c2F)C[C@H](NCCC2CCOC2)CC3)S(=O)(=O)N1` (stereo partly drawn) [Compound 356, 5-[(7R)-1-fluoro-3-hydroxy-7-{[2-(oxolan-3-yl)ethyl]amino}-5,6,7,8-tetrahydronaphthalen-2-yl]-1λ^6,2,5-thiadiazolidine-1,1,3-trione], the figures for the IC50 in assay [1] and in assay [2] were under 0.001 µM and 0.001 to 0.01 µM, respectively.
For `Cn1cncc1CN[C@@H]1CCc2cc(O)c(N3CC(=O)NS3(=O)=O)c(F)c2C1` [Compound 357, 5-[(7R)-1-fluoro-3-hydroxy-7-{[(1-methyl-1H-imidazol-5-yl)methyl]amino}-5,6,7,8-tetrahydronaphthalen-2-yl]-1λ^6,2,5-thiadiazolidine-1,1,3-trione] the same measures were 0.01 to 0.1 µM and 0.01 to 0.1 µM.
For the compound `CC(C)(CN[C@@H]1CCc2cc(O)c(N3CC(=O)NS3(=O)=O)c(F)c2C1)CN1CCCC1` [Compound 358, 5-[(7R)-7-{[2,2-dimethyl-3-(pyrrolidin-1-yl)propyl]amino}-1-fluoro-3-hydroxy-5,6,7,8-tetrahydronaphthalen-2-yl]-1λ^6,2,5-thiadiazolidine-1,1,3-trione], the IC50 in assay [1] and in assay [2] was 0.01 to 0.1 µM throughout.
`O=C1CN(c2c(O)cc3c(c2F)C[C@H](NCc2ccc(CO)o2)CC3)S(=O)(=O)N1` [Compound 359, 5-[(7R)-1-fluoro-3-hydroxy-7-({[5-(hydroxymethyl)furan-2-yl]methyl}amino)-5,6,7,8-tetrahydronaphthalen-2-yl]-1λ^6,2,5-thiadiazolidine-1,1,3-trione]: the IC50 in assay [1] and in assay [2] was 0.01 to 0.1 µM throughout.
Regarding `COCCCCN[C@@H]1CCc2cc(O)c(N3CC(=O)NS3(=O)=O)c(F)c2C1` [Compound 360, 5-{(7R)-1-fluoro-3-hydroxy-7-[(4-methoxybutyl)amino]-5,6,7,8-tetrahydronaphthalen-2-yl}-1λ^6,2,5-thiadiazolidine-1,1,3-trione], the IC50 fell in the range of 0.001 to 0.01 µM in assay [1] and 0.01 to 0.1 µM in assay [2].
For `O=C1CN(c2c(O)cc3c(c2F)C[C@H](NCC2CCOC2)CC3)S(=O)(=O)N1` (stereo partly drawn) [Compound 361, 5-[(7R)-1-fluoro-3-hydroxy-7-{[(oxolan-3-yl)methyl]amino}-5,6,7,8-tetrahydronaphthalen-2-yl]-1λ^6,2,5-thiadiazolidine-1,1,3-trione] the same measures were 0.001 to 0.01 µM and 0.01 to 0.1 µM.
For `O=C1CN(c2c(O)cc3c(c2F)C[C@H](NCC2CC2(F)F)CC3)S(=O)(=O)N1` (stereo partly drawn) [Compound 362, 5-[(7R)-7-{[(2,2-difluorocyclopropyl)methyl]amino}-1-fluoro-3-hydroxy-5,6,7,8-tetrahydronaphthalen-2-yl]-1λ^6,2,5-thiadiazolidine-1,1,3-trione] the same measures were 0.01 to 0.1 µM and 0.01 to 0.1 µM.
For `COCCCN[C@@H]1CCc2cc(O)c(N3CC(=O)NS3(=O)=O)c(F)c2C1` [Compound 363, 5-{(7R)-1-fluoro-3-hydroxy-7-[(3-methoxypropyl)amino]-5,6,7,8-tetrahydronaphthalen-2-yl}-1λ^6,2,5-thiadiazolidine-1,1,3-trione] the same measures were 0.001 to 0.01 µM and 0.01 to 0.1 µM.
`O=C1CN(c2c(O)cc3c(c2F)C[C@H](NCc2cnco2)CC3)S(=O)(=O)N1` [Compound 364, 5-[(7R)-1-fluoro-3-hydroxy-7-{[(1,3-oxazol-5-yl)methyl]amino}-5,6,7,8-tetrahydronaphthalen-2-yl]-1λ^6,2,5-thiadiazolidine-1,1,3-trione]: the IC50 in assay [1] and in assay [2] was 0.01 to 0.1 µM throughout.
As for `O=C1CN(c2c(O)cc3c(c2F)C[C@H](NCCC2CCOCC2)CC3)S(=O)(=O)N1` [Compound 365, 5-[(7R)-1-fluoro-3-hydroxy-7-{[2-(oxan-4-yl)ethyl]amino}-5,6,7,8-tetrahydronaphthalen-2-yl]-1λ^6,2,5-thiadiazolidine-1,1,3-trione], the IC50 in assay [1] lay within 0.001 to 0.01 µM; in assay [2] it was 0.01 to 0.1 µM.
For `O=C1CN(c2c(O)cc3c(c2F)C[C@H](NCC2COC2)CC3)S(=O)(=O)N1` [Compound 366, 5-[(7R)-1-fluoro-3-hydroxy-7-{[(oxetan-3-yl)methyl]amino}-5,6,7,8-tetrahydronaphthalen-2-yl]-1λ^6,2,5-thiadiazolidine-1,1,3-trione] the same measures were 0.01 to 0.1 µM and 0.01 to 0.1 µM.
For `O=C1CN(c2c(O)cc3c(c2F)C[C@H](NCc2nccs2)CC3)S(=O)(=O)N1` [Compound 367, 5-[(7R)-1-fluoro-3-hydroxy-7-{[(1,3-thiazol-2-yl)methyl]amino}-5,6,7,8-tetrahydronaphthalen-2-yl]-1λ^6,2,5-thiadiazolidine-1,1,3-trione] the same measures were 0.01 to 0.1 µM and 0.01 to 0.1 µM.
For `O=C1CN(c2c(O)cc3c(c2F)C[C@H](NCc2ccnnc2)CC3)S(=O)(=O)N1` [Compound 368, 5-[(7R)-1-fluoro-3-hydroxy-7-{[(pyridazin-4-yl)methyl]amino}-5,6,7,8-tetrahydronaphthalen-2-yl]-1λ^6,2,5-thiadiazolidine-1,1,3-trione] the same measures were 0.01 to 0.1 µM and 0.01 to 0.1 µM.
As to `CC(O)CCN[C@@H]1CCc2cc(O)c(N3CC(=O)NS3(=O)=O)c(F)c2C1` (stereo partly drawn) [Compound 369, 5-{(7R)-1-fluoro-3-hydroxy-7-[(3-hydroxybutyl)amino]-5,6,7,8-tetrahydronaphthalen-2-yl}-1λ^6,2,5-thiadiazolidine-1,1,3-trione], the IC50 in assay [1] fell in the range of 0.001 to 0.01 µM; in assay [2], 0.01 to 0.1 µM.
For `CC(C)CCN[C@@H]1COc2cc(O)c(N3CC(=O)NS3(=O)=O)c(F)c2C1` [Compound 372, 5-{(3S)-5-fluoro-7-hydroxy-3-[(3-methylbutyl)amino]-3,4-dihydro-2H-1-benzopyran-6-yl}-1λ^6,2,5-thiadiazolidine-1,1,3-trione], the 50% inhibitory concentration (IC50) in assay [1] and in assay [2] was 0.01 to 0.1 µM throughout.
On to `O=C1CN(c2c(O)cc3c(c2F)C[C@H](NCCCC(F)F)CO3)S(=O)(=O)N1` [Compound 373, 5-{(3S)-3-[(4,4-difluorobutyl)amino]-5-fluoro-7-hydroxy-3,4-dihydro-2H-1-benzopyran-6-yl}-1λ^6,2,5-thiadiazolidine-1,1,3-trione], for which the IC50 in assay [1] lay within 0.001 to 0.01 µM; in assay [2], 0.01 to 0.1 µM.
For `CC(C)(CCN)CCN[C@@H]1CCc2cc(O)c(N3CC(=O)NS3(=O)=O)c(F)c2C1` [Compound 374, 5-{(7R)-7-[(5-amino-3,3-dimethylpentyl)amino]-1-fluoro-3-hydroxy-5,6,7,8-tetrahydronaphthalen-2-yl}-1λ^6,2,5-thiadiazolidine-1,1,3-trione] the same measures were 0.001 to 0.01 µM and 0.01 to 0.1 µM.
For `O=C1CN(c2c(O)cc3c(c2F)C[C@H](NCCC2CCOCC2)CO3)S(=O)(=O)N1` [Compound 375, 5-[(3S)-5-fluoro-7-hydroxy-3-{[2-(oxan-4-yl)ethyl]amino}-3,4-dihydro-2H-1-benzopyran-6-yl]-1λ^6,2,5-thiadiazolidine-1,1,3-trione] the same measures were 0.01 to 0.1 µM and 0.01 to 0.1 µM.
On to `NCC1(CCN[C@@H]2CCc3cc(O)c(N4CC(=O)NS4(=O)=O)c(F)c3C2)CCC1` [Compound 376, 5-[(7R)-7-({2-[1-(aminomethyl)cyclobutyl]ethyl}amino)-1-fluoro-3-hydroxy-5,6,7,8-tetrahydronaphthalen-2-yl]-1λ^6,2,5-thiadiazolidine-1,1,3-trione], for which the IC50 in assay [1] is under 0.001 µM; in assay [2], 0.001 to 0.01 µM.
For the compound `NCCC1(CCN[C@@H]2CCc3cc(O)c(N4CC(=O)NS4(=O)=O)c(F)c3C2)CCC1` [Compound 377, 5-[(7R)-7-({2-[1-(2-aminoethyl)cyclobutyl]ethyl}amino)-1-fluoro-3-hydroxy-5,6,7,8-tetrahydronaphthalen-2-yl]-1λ^6,2,5-thiadiazolidine-1,1,3-trione], the IC50 was under 0.001 µM in assay [1] and 0.001 to 0.01 µM in assay [2].
For `O=C1CN(c2c(O)cc3c(c2F)C[C@H](NCCCOCC(F)F)CO3)S(=O)(=O)N1` [Compound 379, 5-[(3S)-3-{[3-(2,2-difluoroethoxy)propyl]amino}-5-fluoro-7-hydroxy-3,4-dihydro-2H-1-benzopyran-6-yl]-1λ^6,2,5-thiadiazolidine-1,1,3-trione] the same measures were 0.01 to 0.1 µM and 0.01 to 0.1 µM.
For `O=C1CN(c2c(O)cc3c(c2F)C[C@H](NCC2CCC(C(F)(F)F)CC2)CO3)S(=O)(=O)N1` (stereo partly drawn) [Compound 380, 5-[(3S)-5-fluoro-7-hydroxy-3-({[4-(trifluoromethyl)cyclohexyl]methyl}amino)-3,4-dihydro-2H-1-benzopyran-6-yl]-1λ^6,2,5-thiadiazolidine-1,1,3-trione] the same measures were 0.01 to 0.1 µM and 0.01 to 0.1 µM.
